# Assay results reported in patent US9682130B2 (priority 2015, dated 2017).
# Where two headings read alike, the source gives them in different places.
# Tests used:
# Adenovirus serotype Ad5 = assay: Ad5/NZW rabbit ocular replication model, plaque assay of ocular samples; type: in vivo; settings: 0.5% Cidofovir, twice daily 7 days
# Method: See, e.g., Romanowski, et al., The In Vitro and In Vivo Evaluation of ddC as a Topical Antiviral for Ocular Adenovirus Infections, Invest. Ophthalmol. Vis. Sci. 50: 5295-5299 (2009), which is hereby incorporated by reference in its entirety.
# (§1) To conduct this in vivo assay, 25 NZW rabbit were anesthetized using the general anesthesia ketamine and xylazine and the topical anesthesia proparacaine. Each rabbit was then topically inoculated with 50 μL of Adenovirus serotype Ad5 (3×10^7 pfu/mL) in both eyes after corneal epithelial scarification (12 cross-hatched strokes of a 25 sterile needle). Eyes were closed and gently rubbed for 5 seconds to ensure contact of the virus on all ocular surfaces. […] All topical solutions (37 μL drops) were instilled with an electronic pipette (EDP; Rainin, Oakland, Calif.) set in the multi-dispense mode. Ocular swabbing to recover adenovirus from tear film and corneal and conjunctival surfaces, after topical anesthesia with proparacaine, was performed at least 1 hour after the final dose on days 0, 1, 3, 4, 5, 7, 9, 11, and 14 after inoculation. The ocular samples from each eye was placed individually into tubes containing 1 mL of medium and were frozen at −70° C. pending viral plaque assay.
# The ocular samples were assayed for Ad5 titers by performing a plaque reduction assay. Samples were diluted 1:10 and these dilutions were inoculated onto duplicate wells of a 24 well multi-plate containing A549 monolayers. The virus was adsorbed for 3 hours at 37° C. in a 5% CO2-water vapor atmosphere without constant rocking. After adsorption, 1 mL of medium plus 0.5% methylcellulose was added to each well, and the plates were incubated at 37° C. in a 5% CO2-water vapor atmosphere. After 7 days, the cells were stained with 0.5% gentian violet, and the number of plaques counted using a dissecting microscope (25×). The viral titers were then calculated, and will be expressed as plaque-forming units per milliliter (PFU/mL). Data from the study were analyzed using analysis of variance (ANOVA) with Fisher's pair-wise comparisons and X^2 analyses using True Epistat and/or Minitab statistical software. Significance was established at the P≦0.05 confidence level.
# [1] = Eye irritation, Draize scale (MMTS), Ad5/NZW rabbit ocular model; type: in vivo; settings: NZW, rabbit, in vivo
# Method: as §1, with “surfaces. Inoculation of both eyes allowed for the reduction in the number of animals needed without jeopardizing statistical validity.” for “surfaces.”
# The animals were assayed for eye irritation using a Draize scale for ocular lesions. Classification of eye irritation was evaluated for both eyes of each rabbit on day 3 and day 9 using the maximum mean total score (MMTS; Table 4). See, e.g., Kay and Calandra, Interpretation of Eye Irritation Tests, J. Soc. Cos. Chem. 13: 281-289 (1962), the content of which is hereby incorporated by reference in its entirety. The MMTS score used was as follows: 0.0-0.5, Non-Irritating (N); 0.6-2.5, Practically Non-Irritating (PN); 2.6-15.0, Minimally Irritating (M1); 15.1-25.0, Mildly Irritating (M2); 25.1-50.0, Moderately Irritating (M3); 50.1-80.0, Severely Irritating (S); 80.1-100.0, Extremely Irritating (E); and 100.1-110.0, Maximally Irritating (Mx).
# in vitro = settings: African green monkey
# [2] = test system: Human Adenovirus 8 (Ad8 strain 13306); assay: Neutral red lysosomal uptake assay, Adenovirus 8; type: cell-based; settings: MA104; Adenovirus 8, MA-104 cells
# Method: (§2) To assess in vitro cytotoxicity, both a cytopathic effects of a virus (CPE) regression assay and a neutral red lysosomal uptake cell viability assay was performed essentially as described in, e.g., Repetto, et al., Neutral Red Uptake Assay for the Estimation of Cell Viability/Cytotoxicity, Nat. Protoc. 3: 1125-1131 (2008), the content of which is hereby incorporated by reference in its entirety. Ninety-six-well plates were seeded with MA-104 cells at 1×10^5 cells/mL and incubated overnight at 37° C. with 5% CO2. […] Each dilution was added to 5 wells of a 96-well plate with 80% to 100% confluent cells, and three wells of each dilution were then infected with one of the two test viruses. Two wells remained uninfected as controls for toxicity. Six wells per plate were set aside as uninfected, untreated cell controls, and six wells per plate were infected with no treatment as virus controls. […] Assay plates were incubated at 37° C. with 5% CO2. […] After CPE reduction assay was completed, a neutral red lysosomal uptake assay was conducted by filling each well with 0.011% (m/v) neutral red, a vital stain. The plates then were incubated for about 2 hours at 37° C. in the dark. […] The plates were then read on a spectrophotometer at 540 nm to quantify the neutral red taken up by the healthy cells. […]
# [3] = test system: Human Adenovirus 5 (AD5 strain NYS #98-1836); assay: microbe, parasite or virus in culture; type: cell-based; settings: Human mastadenovirus C, MA104, Adenovirus 5, MA-104 cells
# Method: To assess in vitro cytotoxicity, both a cytopathic effects of a virus (CPE) regression assay and a neutral red lysosomal uptake cell viability assay was performed essentially as described in, e.g., Repetto, et al., Neutral Red Uptake Assay for the Estimation of Cell Viability/Cytotoxicity, Nat. Protoc. 3: 1125-1131 (2008), the content of which is hereby incorporated by reference in its entirety. Ninety-six-well plates were seeded with MA-104 cells at 1×10^5 cells/mL and incubated overnight at 37° C. with 5% CO2. […] Each dilution was added to 5 wells of a 96-well plate with 80% to 100% confluent cells, and three wells of each dilution were then infected with one of the two test viruses. Two wells remained uninfected as controls for toxicity. Six wells per plate were set aside as uninfected, untreated cell controls, and six wells per plate were infected with no treatment as virus controls. […] Assay plates were incubated at 37° C. with 5% CO2. […] After CPE reduction assay was completed, a neutral red lysosomal uptake assay was conducted by filling each well with 0.011% (m/v) neutral red, a vital stain. The plates then were incubated for about 2 hours at 37° C. in the dark. The unincorporated neutral red solution was removed from the wells and the incorporated dye was then eluted by adding Sorensen's citrate-buffered ethanol. The plates were then read on a spectrophotometer at 540 nm to quantify the neutral red taken up by the healthy cells. The optical density of test wells was converted to percent of cell control and normalized to the virus controls.
# The concentration of test compound required to inhibit CPE by 50% or reduce red uptake into cells by 50% (EC50) was calculated by regression analysis. The toxicity of the compound without virus present was similarly calculated using the uninfected wells treated with test compounds compared with untreated cell controls. The concentration of compound that would cause 50% cytotoxic effects in the absence of virus (CC50) was estimated by linear regression analysis. The selectivity index (SI) is the CC50 divided by EC50.
# [4] = test system: Human Adenovirus 8 (Ad8 strain 13306); assay: CPE reduction assay, Adenovirus 8; type: cell-based; settings: MA104; Adenovirus 8, MA-104 cells
# Method: as §2
# MA-104 cells = settings: African green monkey
smiles,measurement,setting,value
"Nc1ccn(C[C@@H](CO)OCP(=O)(O)O)c(=O)n1 [CDV, Cidofovir, reference compound]","Ad5-positive ocular samples, percent, Day 1",Adenovirus serotype Ad5,100%
same,"Ad5-positive ocular samples, percent, Day 3",Adenovirus serotype Ad5,100%
same,"Ad5-positive ocular samples, percent, Day 4",Adenovirus serotype Ad5,100%
same,"Ad5-positive ocular samples, percent, Day 5",Adenovirus serotype Ad5,100%
same,"Ad5-positive ocular samples, percent, Day 7",Adenovirus serotype Ad5,63%
same,"Ad5-positive ocular samples, percent, Day 11",Adenovirus serotype Ad5,0%
same,"Ad5-positive ocular samples, percent, Day 14",Adenovirus serotype Ad5,0%
same,"Ad5-positive ocular samples, percent, Total",Adenovirus serotype Ad5,66.1%
same,"Ad5-positive ocular samples/total eyes, Day 1",Adenovirus serotype Ad5,8/8
same,"Ad5-positive ocular samples/total eyes, Day 3",Adenovirus serotype Ad5,8/8
same,"Ad5-positive ocular samples/total eyes, Day 4",Adenovirus serotype Ad5,8/8
same,"Ad5-positive ocular samples/total eyes, Day 5",Adenovirus serotype Ad5,8/8
same,"Ad5-positive ocular samples/total eyes, Day 7",Adenovirus serotype Ad5,5/8
same,"Ad5-positive ocular samples/total eyes, Day 11",Adenovirus serotype Ad5,0/8
same,"Ad5-positive ocular samples/total eyes, Day 14",Adenovirus serotype Ad5,0/8
same,"Ad5-positive ocular samples/total eyes, Total",Adenovirus serotype Ad5,37/56
same,"Ocular irritation MMTS score, Day 3",[1]; 3 day,5.9
same,"Ocular irritation MMTS score, Day 9",[1]; 9 day,27.5
"Nc1ccn([C@H]2CC[C@@H](CO)O2)c(=O)n1 [ddC, 2′, 3′-Dideoxycytidine]",CC50,in vitro,< 5000 µg/mL
same,EC50,[2],2.7 µg/mL
same,EC50,[3]; read-out: CPE Reduction Assay EC50,2.1 µg/mL
same,EC50,[3]; read-out: Neutral Red Assay EC50,2.7 µg/mL
same,EC50,[4],2.1 µg/mL
same,CPE Reduction Assay CC50,MA-104 cells,<5000 µg/mL
same,Neutral Red Assay CC50,MA-104 cells,<5000 µg/mL
